One assay relates to V5-SPOP in HeLa cells. The assay is described as follows: Immunofluorescence: V5-SPOP localization on coexpression of GFP–Pdx1 variants. Format: cell-based. The following applies: 24 h after transfection; for V5-SPOP localization, high Pdx1 expression: cells expressing GFP–Pdx1 at high levels (high GFP intensity); for V5-SPOP localization, low Pdx1 expression: cells expressing GFP–Pdx1 at low levels; for SPOP relocalization from nuclear speckles by Pdx1 variant: coexpressed with V5-SPOP, three biological replicates. Here is the method: HeLa cells were cultured under sterile conditions with Dulbecco’s modified Eagle’s medium (DMEM) (Gibco) supplemented with 10% fetal bovine serum and antibiotics/antimycotics (Gibco) (see Table S5 for key reagents and resources). T-REx-293 cells (cat. no. R710-07) were obtained from Invitrogen. Cells were grown on DMEM supplemented with 10% fetal bovine serum (Gibco), GlutaMax (Gibco), and Penicillin-Streptomycin (Gibco) and kept under selection by 5 μg/ml blasticidin. All cells were grown at 37 °C under 5% CO2 and were mycoplasma free at the time the experiments were performed.
A plasmid encoding full-length human Pdx1 (amino acids 1-283) in pcDNA3.1 with a C-terminal GFP tag was purchased from GenScript. Full-length mouse SPOP (identical to the human sequence) with a V5 epitope tag in pcDNA3 was generated previously ([21]). The coding sequence for full-length mouse SPOP was inserted into pcDNA4/TO/myc (Invitrogen) for the T-REx system. pcDNA3-myc-CUL3 (cat no. 19893) and pcDNA–HA2–ROC1 (Rbx1) (cat no. 19897) were obtained from Addgene. pcDNA3 containing His-ubiquitin was a gift from Wenyi Wei.
For immunofluorescence experiments, 0.5 × 10^6 cells were seeded on borosilicate glass coverslips in 6-well plates. After 24 h, cells were transfected with 400 ng of each plasmid using the Qiagen Effectene transfection reagent according to the manufacturer protocol. 24 h after transfection, the cells were treated with 4% paraformaldehyde in PBS for 30 min at RT. Cells were permeabilized with 0.1% Triton X-100 in PBS (PBST) for 5 min at 21 °C, followed by blocking in 0.5% BSA in PBST for 1 h at 21 °C. Signal from GFP-tagged proteins was observed directly. Cells were stained in primary antibodies diluted in 0.5% BSA in PBST overnight at 4 °C with mouse anti-SC-35 (1:300, ab11826; Abcam) and chicken anti-V5 (1:300, NB600-379; Novus Biologicals). Cells were incubated with secondary antibodies for 2 h at 21 °C. The secondary antibodies used were goat anti-mouse Alexa Fluor 647 (1:250, A-21235; Thermo Fisher) and goat anti-chicken Alexa Fluor 555 (1:250, A-21437; Thermo Fisher). Cells on coverslips were treated with 300 nM 4′,6-diamidino-2-phenylindole (DAPI) for 5 min at 21 °C. Coverslips were mounted on glass slides with ProLong Diamond mounting reagent (Thermo Fisher) and cured before imaging on a Zeiss LSM 880 Upright microscope. All images were analyzed and prepared in Fiji ([53]).
All immunofluorescence data were averaged over three biological replicates. Cells not expressing both Pdx1 and SPOP were excluded from sampling. Raw images were collected in the Zeiss Zen software and then exported for viewing and analysis in Fiji. Nuclei of individual cells were designated manually in Fiji using the DAPI channel as a guide. The cells were binned based on whether SPOP was localized to nuclear speckles (puncta); cells with both diffuse and punctate SPOP signal were binned as “speckled.” The grayscale signal intensity of the green channel (Pdx1–GFP) was averaged over the DAPI-designated nuclear area. Next, the raw GFP intensity data points (one data point per cell analyzed) were plotted to generate a violin plot distribution. The average, minimum, and maximum values are shown by horizontal lines on the plot. Individual data points are also shown for rigor. […] All plotting and statistical tests were performed using in-house python scripts that can be found at https://github.com/idpemery/spop-pdx1.

Assay [1] has as its system SPOP-dependent turnover in T-REx-293 cells. The assay is described as follows: SPOP-dependent Pdx1 stability (Western blot). The following applies: no MG132, harvested 28 h after transfection, Western blot (Fig. S3D). Format: cell-based. Here is the method:
In a similar experiment, the cells were not treated with a proteasome inhibitor to observe the SPOP-dependent stability of each Pdx1 variant.
T-REx-293 cells (Invitrogen) were seeded at a density of 0.8 × 10^6 per well in 6-well plates (tissue culture–treated plates (cat. no 3516, Corning)). After 24 h, cells were transfected with plasmids encoding Pdx1–GFP, SPOP–myc, His–ubiquitin, HA–Rbx1, and myc–CUL3 (as indicated) using the Qiagen Effectene transfection reagent. 24 h after transfection, the cells were treated with either dimethyl sulfoxide or 20 μM MG132 for 4 h before being harvested. Cells were lysed in buffer A (6 M guanidine HCl, 100 mM sodium phosphate, pH 8.0, and 10 mM imidazole). The lysates were sonicated, cleared, and incubated with Ni-NTA Agarose (Qiagen) for 3 h at RT, followed by 16 h at 4 °C. The beads were washed twice with buffer A and twice with a buffer composed of 1:3 buffer A:buffer T1 (buffer T1: 25 mM Tris HCl, pH 8.0, and 20 mM imidazole). The beads were finally transferred to buffer T1 and then boiled in the SDS-PAGE loading buffer containing 300 mM imidazole. Pdx1 stability assays were performed as described above, except that the cells were not treated with MG132. Cells expressing Pdx1–GFP or a variant were harvested 28 h after transfection, resuspended in 2x SDS-loading dye, and boiled for 5 min before SDS-PAGE analysis.
All proteins were resolved by SDS-PAGE. Separated proteins were analyzed by immunoblotting using either the ECL or the ECL Select Western blotting detection reagents (Amersham). The antibodies used were mouse anti-Pdx1 used at 1:500 for pulldown or 1:2000 for inputs (clone 26771, MAB2419, R&D Systems), mouse anti-myc (1:250, clone 9E10, Santa Cruz Biotechnology), and rabbit anti-GAPDH (1:8000, clone EPR1689, Abcam). horseradish peroxidase-conjugated secondary antibodies were sourced from Jackson ImmunoResearch Laboratories and used at 1:20,000 dilution (goat anti-rabbit IgG, 111-035-003 and goat anti-mouse, 115-035-003).

“Pdx1: full-length human Pdx1 (amino acids 1-283) with a C-terminal GFP tag”: the “V5-SPOP localization, high Pdx1 expression” value in the assay with V5-SPOP in HeLa cells is reported as “SPOP is diffuse”; in the assay on V5-SPOP in HeLa cells (listed as WT–Pdx1) it was “primarily diffuse V5-SPOP”. Besides, the entries for the “V5-SPOP localization, low Pdx1 expression” value in the assay with V5-SPOP in HeLa cells and in the assay with V5-SPOP in HeLa cells (listed as WT–Pdx1) were “SPOP localizes to nuclear speckles” and “V5-SPOP localizes to nuclear speckles”, respectively. The results for the “SPOP relocalization from nuclear speckles by Pdx1 variant” value in the assay on V5-SPOP in HeLa cells and with V5-SPOP in HeLa cells (listed as GFP–Pdx1–WT) were “relocalization of SPOP from nuclear speckles” and “SPOP relocalized from nuclear speckles into the diffuse nucleoplasm”, respectively. In addition, the “SPOP-dependent Pdx1 stability” value is “almost entirely degraded” in assay [1] (listed as Pdx1-GFP-WT) and “readily degraded” in assay [1] (listed as Pdx1–WT).

For the origin of these results see PMC8138767, “Intrinsically disordered substrates dictate SPOP subnuclear localization and ubiquitination activity” (The Journal of Biological Chemistry, 2021).
